Measured values: ChEMBL document CHEMBL4376829, “Discovery and biological evaluation of vinylsulfonamide derivatives as highly potent, covalent TEAD autopalmitoylation inhibitors” (Eur J Med Chem, 2019)
Calls of active or inactive are those of the source. No cut-off for these calls is given here.

Legend:
[1] = biological target: Fatty acid-binding protein, adipocyte (Homo sapiens) (UniProt P15090); assay: Binding affinity to FABP4 (unknown origin) at 1:1 ratio by fluorescence based thermal shift assay
Fatty acid-binding protein, adipocyte (Homo sapiens), sequence (P15090 2-132 limits assumed): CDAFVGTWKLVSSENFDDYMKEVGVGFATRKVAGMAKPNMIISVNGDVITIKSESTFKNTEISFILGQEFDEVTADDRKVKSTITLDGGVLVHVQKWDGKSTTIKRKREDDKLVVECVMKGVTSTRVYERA

[2] = biological target: Transcriptional enhancer factor TEF-3 (Homo sapiens, UniProt Q15561); assay: Binding affinity to TEAD4 in human HCT116 cells assessed as increase in soluble form of TEAD4 level at 50 uM preincubated for 4 hrs followed by heating at 51.6 to 64.4 degC for 3 mins by immunoblot-based […]; format: cell-based
[3] = biological target: LIM domain kinase 1 (Homo sapiens) (UniProt P53667); assay: Inhibition of recombinant human LIMK1 (285 to 638 residues) at 10 uM using cofilin as substrate measured after 40 mins in presence of [gamm33P]ATP by scintillation counting method relative to control
[4] = biological target: Mitogen-activated protein kinase kinase kinase 7 (Homo sapiens) (UniProt O43318); assay: Inhibition of recombinant human TAK1 (1 to 303 residues) at 10 uM using casein as substrate measured after 40 mins in presence of [gamma33P]ATP by scintillation counting method relative to control
Mitogen-activated protein kinase kinase kinase 7 (Homo sapiens), sequence (O43318 whole entry, the tested form may be a part): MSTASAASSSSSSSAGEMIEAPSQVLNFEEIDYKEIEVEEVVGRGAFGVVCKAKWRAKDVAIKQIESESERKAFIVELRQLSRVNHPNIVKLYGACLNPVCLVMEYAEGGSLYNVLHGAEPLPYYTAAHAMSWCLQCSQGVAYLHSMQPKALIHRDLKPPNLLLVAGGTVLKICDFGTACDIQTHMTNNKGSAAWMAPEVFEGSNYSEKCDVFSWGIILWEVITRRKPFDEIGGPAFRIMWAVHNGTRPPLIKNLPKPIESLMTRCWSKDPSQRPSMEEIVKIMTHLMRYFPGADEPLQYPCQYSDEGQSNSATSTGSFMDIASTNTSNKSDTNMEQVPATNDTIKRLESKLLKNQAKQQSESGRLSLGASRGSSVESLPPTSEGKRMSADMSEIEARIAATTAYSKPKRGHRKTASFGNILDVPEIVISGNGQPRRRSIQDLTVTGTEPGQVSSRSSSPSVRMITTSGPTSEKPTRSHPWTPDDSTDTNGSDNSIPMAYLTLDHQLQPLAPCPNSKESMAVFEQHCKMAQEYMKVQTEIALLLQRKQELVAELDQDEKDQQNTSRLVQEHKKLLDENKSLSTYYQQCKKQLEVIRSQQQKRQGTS

[5] = biological target: Proto-oncogene tyrosine-protein kinase Src (Homo sapiens) (UniProt P12931); assay: Inhibition of recombinant human Src (1 to 530 residues) at 10 uM using GGEEEEYFELVKKKK as substrate measured after 40 mins in presence of [gamma33P]ATP by scintillation counting method relative to control
[6] = test system: Glycogen synthase kinase-3 beta (Homo sapiens), P49841 [UNDEFINED MUTATION]; assay: Inhibition of recombinant human GSK3beta H350L mutant (2 to end residues) at 10 uM using phospho GS2 peptide as substrate measured after 40 mins in presence of [gamma33P]ATP by scintillation counting method relative to control
[7] = biological target: Beta-adrenergic receptor kinase 1 (Homo sapiens) (UniProt P25098); assay: Inhibition of full length recombinant human GRK2 at 10 uM using casein as substrate after 40 mins in presence of [gamma33P]ATP by scintillation counting method relative to control
[8] = biological target: Receptor-type tyrosine-protein kinase FLT3 (Homo sapiens) (UniProt P36888); assay: Inhibition of recombinant human Flt3 (564 to end residues) at 10 uM using EAIYAAPFAKKK as substrate after 40 mins in presence of [gamma33P]ATP by scintillation counting method relative to control
[9] = biological target: cGMP-dependent protein kinase 1 (Homo sapiens) (UniProt Q13976); assay: Inhibition of full-length recombinant human PKG1alpha at 10 uM using RRRLSFAEPG as substrate after 40 mins by in presence of [gamma33P]ATP by scintillation counting method relative to control
cGMP-dependent protein kinase 1 (Homo sapiens), sequence (Q13976 whole entry, the tested form may be a part): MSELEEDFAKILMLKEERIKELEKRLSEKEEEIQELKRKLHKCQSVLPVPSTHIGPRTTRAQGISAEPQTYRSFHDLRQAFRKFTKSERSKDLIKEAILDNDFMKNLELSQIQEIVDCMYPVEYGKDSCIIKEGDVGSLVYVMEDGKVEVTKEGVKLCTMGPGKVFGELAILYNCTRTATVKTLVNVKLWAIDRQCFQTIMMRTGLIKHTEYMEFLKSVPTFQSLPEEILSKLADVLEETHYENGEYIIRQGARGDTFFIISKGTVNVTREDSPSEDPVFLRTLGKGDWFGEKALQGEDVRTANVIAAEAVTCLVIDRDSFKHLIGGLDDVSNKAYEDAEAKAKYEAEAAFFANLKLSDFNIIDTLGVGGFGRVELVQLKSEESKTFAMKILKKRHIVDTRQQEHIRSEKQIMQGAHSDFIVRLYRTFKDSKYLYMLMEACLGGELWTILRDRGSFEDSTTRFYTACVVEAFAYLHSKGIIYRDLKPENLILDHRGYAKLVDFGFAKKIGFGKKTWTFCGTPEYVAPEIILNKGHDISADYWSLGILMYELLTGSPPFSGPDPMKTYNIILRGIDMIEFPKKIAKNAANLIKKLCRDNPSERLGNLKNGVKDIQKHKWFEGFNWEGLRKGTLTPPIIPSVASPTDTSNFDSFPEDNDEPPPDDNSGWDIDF

[10] = biological target: Fibroblast growth factor receptor 2 (Homo sapiens) (UniProt P21802); assay: Inhibition of recombinant human FGFR2 (456 to 770 residues) at 10 uM using poly(Glu, Tyr) 4:1 as substrate measured after 40 mins in presence of [gamma33P]ATP by scintillation counting method relative to control
Fibroblast growth factor receptor 2 (Homo sapiens), sequence (P21802 22-821 limits assumed): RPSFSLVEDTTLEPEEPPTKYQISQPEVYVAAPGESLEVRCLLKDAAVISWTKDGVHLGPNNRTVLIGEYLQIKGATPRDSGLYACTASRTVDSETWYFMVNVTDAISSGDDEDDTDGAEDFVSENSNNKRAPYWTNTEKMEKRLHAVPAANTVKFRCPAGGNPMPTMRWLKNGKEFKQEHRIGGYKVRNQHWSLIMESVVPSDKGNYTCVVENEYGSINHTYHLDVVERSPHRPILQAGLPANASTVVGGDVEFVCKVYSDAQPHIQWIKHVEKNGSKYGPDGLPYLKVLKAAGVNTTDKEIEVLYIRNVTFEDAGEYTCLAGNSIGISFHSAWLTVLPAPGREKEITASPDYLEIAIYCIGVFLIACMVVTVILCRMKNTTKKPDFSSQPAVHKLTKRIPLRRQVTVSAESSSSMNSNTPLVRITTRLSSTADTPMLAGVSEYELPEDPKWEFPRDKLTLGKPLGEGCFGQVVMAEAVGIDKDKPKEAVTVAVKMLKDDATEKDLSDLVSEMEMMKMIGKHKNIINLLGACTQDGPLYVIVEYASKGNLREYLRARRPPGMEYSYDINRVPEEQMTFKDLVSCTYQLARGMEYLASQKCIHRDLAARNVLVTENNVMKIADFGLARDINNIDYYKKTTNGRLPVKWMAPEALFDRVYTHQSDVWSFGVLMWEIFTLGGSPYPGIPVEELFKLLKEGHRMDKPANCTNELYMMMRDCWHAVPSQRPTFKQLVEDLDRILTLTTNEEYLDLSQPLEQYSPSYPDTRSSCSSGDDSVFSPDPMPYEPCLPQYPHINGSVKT

[11] = biological target: Serine/threonine-protein kinase 17B (Homo sapiens) (UniProt O94768); assay: Inhibition of full-length recombinant human DRAK2 at 10 uM using KKRPQRRYSNVF as substrate after 120 mins by in presence of [gamma33P]ATP by scintillation counting method relative to control
Serine/threonine-protein kinase 17B (Homo sapiens), sequence (O94768 whole entry): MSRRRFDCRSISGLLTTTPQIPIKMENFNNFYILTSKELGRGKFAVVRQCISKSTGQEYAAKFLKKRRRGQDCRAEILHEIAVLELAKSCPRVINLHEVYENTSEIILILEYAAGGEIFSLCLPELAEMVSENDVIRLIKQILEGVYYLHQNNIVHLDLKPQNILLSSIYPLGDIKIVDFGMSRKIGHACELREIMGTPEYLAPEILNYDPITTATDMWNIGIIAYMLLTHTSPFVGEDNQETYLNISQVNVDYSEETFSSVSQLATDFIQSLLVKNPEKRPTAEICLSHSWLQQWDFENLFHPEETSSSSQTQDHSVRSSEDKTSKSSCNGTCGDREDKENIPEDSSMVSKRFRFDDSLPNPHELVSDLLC

[12] = biological target: Serine/threonine-protein kinase Nek2 (Homo sapiens) (UniProt P51955); assay: Inhibition of recombinant human full length NEK2 at 10 uM using myelin basic protein as substrate incubated for 40 mins in presence of [gamma-33P]-ATP by scintillation counting method relative to control
Serine/threonine-protein kinase Nek2 (Homo sapiens), sequence (P51955 whole entry): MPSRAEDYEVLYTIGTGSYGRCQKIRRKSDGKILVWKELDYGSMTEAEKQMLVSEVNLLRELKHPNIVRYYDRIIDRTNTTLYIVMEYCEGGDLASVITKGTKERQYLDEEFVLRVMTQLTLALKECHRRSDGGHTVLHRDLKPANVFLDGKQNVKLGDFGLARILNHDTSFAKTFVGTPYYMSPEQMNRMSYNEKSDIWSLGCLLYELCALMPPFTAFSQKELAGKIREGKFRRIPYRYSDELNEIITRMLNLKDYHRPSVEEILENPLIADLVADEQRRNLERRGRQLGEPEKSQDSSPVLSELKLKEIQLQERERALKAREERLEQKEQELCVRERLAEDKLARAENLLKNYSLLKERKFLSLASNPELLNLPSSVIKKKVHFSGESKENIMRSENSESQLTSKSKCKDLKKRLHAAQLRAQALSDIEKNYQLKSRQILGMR

[13] = biological target: Serine/threonine-protein kinase mTOR (Homo sapiens) (UniProt P42345); assay: Inhibition of recombinant full-length human mTOR at 10 uM after 40 mins in presence of [gamma33P]ATP by scintillation counting analysis relative to control
[14] = biological target: Serine/threonine-protein kinase 26 (Homo sapiens) (UniProt Q9P289); assay: Inhibition of recombinant human MST4 (4 to 304 residues) at 10 uM using RLGRDKYKTLRQIRQ as substrate measured after 40 mins in presence of [gamma33P]ATP by scintillation counting method relative to control
Serine/threonine-protein kinase 26 (Homo sapiens), sequence (Q9P289 2-416 limits assumed): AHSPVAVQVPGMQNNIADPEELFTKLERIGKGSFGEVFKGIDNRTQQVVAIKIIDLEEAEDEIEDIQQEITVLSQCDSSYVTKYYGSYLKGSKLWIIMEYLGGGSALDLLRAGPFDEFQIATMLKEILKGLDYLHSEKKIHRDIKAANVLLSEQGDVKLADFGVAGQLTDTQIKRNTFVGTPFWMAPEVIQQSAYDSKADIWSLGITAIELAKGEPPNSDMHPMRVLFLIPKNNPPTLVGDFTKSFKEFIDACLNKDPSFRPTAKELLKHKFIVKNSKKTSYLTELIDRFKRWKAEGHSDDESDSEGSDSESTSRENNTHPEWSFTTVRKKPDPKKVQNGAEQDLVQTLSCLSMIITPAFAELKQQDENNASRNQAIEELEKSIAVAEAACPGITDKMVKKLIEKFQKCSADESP

[15] = biological target: Serine/threonine-protein kinase 3 (Homo sapiens) (UniProt Q13188); assay: Inhibition of recombinant full-length human MST2 (2 to end residues) at 10 uM using myelin basic protein as substrate measured after 40 mins in presence of [gamma33P]ATP by scintillation counting method relative to control
Serine/threonine-protein kinase 3 (Homo sapiens), sequence (Q13188 whole entry): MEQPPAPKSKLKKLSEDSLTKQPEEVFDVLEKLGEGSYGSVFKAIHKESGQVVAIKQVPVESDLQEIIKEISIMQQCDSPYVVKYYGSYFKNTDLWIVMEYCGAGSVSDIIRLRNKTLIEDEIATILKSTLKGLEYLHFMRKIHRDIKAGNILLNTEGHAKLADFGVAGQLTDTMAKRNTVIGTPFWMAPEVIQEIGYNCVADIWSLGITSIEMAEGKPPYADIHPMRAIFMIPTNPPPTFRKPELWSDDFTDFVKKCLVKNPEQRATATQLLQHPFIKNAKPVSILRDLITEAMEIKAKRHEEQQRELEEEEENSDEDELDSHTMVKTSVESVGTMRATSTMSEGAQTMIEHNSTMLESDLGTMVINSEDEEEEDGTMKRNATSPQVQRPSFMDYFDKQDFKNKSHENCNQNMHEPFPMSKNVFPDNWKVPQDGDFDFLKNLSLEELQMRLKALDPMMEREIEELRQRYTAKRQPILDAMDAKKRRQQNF

[16] = biological target: Cyclin-dependent kinase-like 2 (Homo sapiens) (UniProt Q92772); assay: Inhibition of human CDKL2 at 10 uM by radiometric method relative to control
Cyclin-dependent kinase-like 2 (Homo sapiens), sequence (Q92772 whole entry): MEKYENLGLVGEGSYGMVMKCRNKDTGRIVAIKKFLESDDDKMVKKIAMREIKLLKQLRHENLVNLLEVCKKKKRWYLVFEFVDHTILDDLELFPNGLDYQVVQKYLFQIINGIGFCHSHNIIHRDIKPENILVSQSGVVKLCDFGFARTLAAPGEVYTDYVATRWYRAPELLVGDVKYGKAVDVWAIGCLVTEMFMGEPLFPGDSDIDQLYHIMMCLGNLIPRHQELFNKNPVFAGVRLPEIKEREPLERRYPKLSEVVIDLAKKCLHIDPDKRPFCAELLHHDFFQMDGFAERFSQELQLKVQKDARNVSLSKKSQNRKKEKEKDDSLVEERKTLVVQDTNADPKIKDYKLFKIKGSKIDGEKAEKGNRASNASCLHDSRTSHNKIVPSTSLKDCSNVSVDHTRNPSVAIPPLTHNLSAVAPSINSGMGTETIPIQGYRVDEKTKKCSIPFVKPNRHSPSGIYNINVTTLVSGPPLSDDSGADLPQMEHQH

[17] = biological target: Cyclin-dependent kinase 5/CDK5 activator 1 (Homo sapiens) (UniProt Q00535+Q15078); assay: Inhibition of recombinant full-length human CDK5/p25 at 10 uM using histone H1 as substrate measured after 40 mins in presence of [gamma33P]ATP by scintillation counting method relative to control; format: protein-complex assay
[18] = biological target: Cyclin-dependent kinase 14/Cyclin-Y (Homo sapiens) (UniProt O94921+Q8ND76); assay: Inhibition of human CDK14/cyclinY at 10 uM by radiometric assay relative to control; format: protein-complex assay
[19] = biological target: CDK12/Cyclin K (Homo sapiens) (UniProt O75909+Q9NYV4); assay: Inhibition of full-length recombinant human CDK12/cyclinK at 10 uM using RSRSRSRSRSRSRSR as substrate after 40 mins by in presence of [gamma33P]ATP by scintillation counting method relative to control; format: protein-complex assay
[20] = biological target: Dual specificity mitogen-activated protein kinase kinase 1 (Homo sapiens) (UniProt Q02750); assay: Inhibition of recombinant full-length human MEK1 at 10 uM using unactive MAPK2 as substrate measured after 40 mins in presence of [gamma33P]ATP by scintillation counting method relative to control
[21] = species: Homo sapiens; assay: Inhibition of recombinant full length human Aurora A I31F mutant at 10 uM using LRRASLG as substrate incubated for 40 mins in presence of [gamma-33P]-ATP by scintillation counting method relative to control
[22] = biological target: Protein arginine N-methyltransferase 1 (Homo sapiens) (UniProt Q99873); assay: Inhibition of human PRMT1 at 10 uM after 1 hr by radioisotope-based assay relative to control
[23] = biological target: Histone-lysine N-methyltransferase SETD7 (Homo sapiens) (UniProt Q8WTS6); assay: Inhibition of human SET7 at 10 uM relative to control
Histone-lysine N-methyltransferase SETD7 (Homo sapiens), sequence (Q8WTS6 whole entry): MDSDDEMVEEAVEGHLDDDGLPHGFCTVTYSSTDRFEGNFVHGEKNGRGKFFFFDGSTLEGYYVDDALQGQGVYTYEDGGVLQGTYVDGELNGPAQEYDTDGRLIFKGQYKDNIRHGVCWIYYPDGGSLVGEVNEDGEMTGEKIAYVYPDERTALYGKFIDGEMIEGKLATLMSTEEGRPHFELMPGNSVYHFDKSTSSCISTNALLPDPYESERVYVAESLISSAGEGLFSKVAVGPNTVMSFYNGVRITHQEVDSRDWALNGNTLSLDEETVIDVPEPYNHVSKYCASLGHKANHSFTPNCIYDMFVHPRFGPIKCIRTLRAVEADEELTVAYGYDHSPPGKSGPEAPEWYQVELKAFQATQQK

[24] = biological target: CREB-binding protein (Homo sapiens) (UniProt Q92793); assay: Inhibition of human CBP-BRD at 10 uM relative to control
[25] = biological target: Serine-protein kinase ATM (Homo sapiens) (UniProt Q13315); assay: Inhibition of recombinant full-length human ATM at 10 uM using GST-cMyc-p53 as substrate measured after 40 mins by EIA method relative to control

In the case of `C=CS(=O)(=O)Nc1ccc(Cc2ccc3ccccc3c2)cc1`, the Activity [1] was “Active”, the Activity [2] was “Active” and the inhibition [3] was -1%. The inhibition [4] was 5%, the inhibition [5] was 17% and the inhibition [6] was -2%. It also gave an inhibition [7] of -9%, an inhibition [8] of 8% and an inhibition [9] of -6%. The inhibition [10] was -4%, the inhibition [11] was -3% and the inhibition [12] was -5%. It also gave an inhibition [13] of 5%, an inhibition [14] of 1% and an inhibition [15] of 2%. The inhibition [16] was 3%, the inhibition [17] was 0% and the inhibition [18] was 1%. It also gave an inhibition [19] of 11%, an inhibition [20] of -3% and an inhibition [21] of -10%. The inhibition [22] was 3%, the inhibition [23] was 2% and the inhibition [24] was 10%. The inhibition [25] was 2%.
